{"source": "paper PMC10274775", "about": "(bioRxiv, 2023)", "key": {"[1]": {"target": "T1, uniporter with MICU1-MICU1 homodimer (MICU2-KO HEK cells) (Homo sapiens, UniProt Q8NE86+Q9BPX6)", "T1 sequence (Q8NE86 51-351)": "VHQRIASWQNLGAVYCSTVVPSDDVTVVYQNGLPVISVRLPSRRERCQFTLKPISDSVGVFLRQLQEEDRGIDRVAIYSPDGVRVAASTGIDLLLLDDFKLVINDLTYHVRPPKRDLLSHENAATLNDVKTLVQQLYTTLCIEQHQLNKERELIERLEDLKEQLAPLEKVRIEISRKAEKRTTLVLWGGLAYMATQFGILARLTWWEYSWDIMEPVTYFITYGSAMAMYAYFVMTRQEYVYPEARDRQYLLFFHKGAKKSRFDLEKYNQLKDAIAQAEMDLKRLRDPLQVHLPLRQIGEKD", "T1 sequence (Q9BPX6 34-476)": "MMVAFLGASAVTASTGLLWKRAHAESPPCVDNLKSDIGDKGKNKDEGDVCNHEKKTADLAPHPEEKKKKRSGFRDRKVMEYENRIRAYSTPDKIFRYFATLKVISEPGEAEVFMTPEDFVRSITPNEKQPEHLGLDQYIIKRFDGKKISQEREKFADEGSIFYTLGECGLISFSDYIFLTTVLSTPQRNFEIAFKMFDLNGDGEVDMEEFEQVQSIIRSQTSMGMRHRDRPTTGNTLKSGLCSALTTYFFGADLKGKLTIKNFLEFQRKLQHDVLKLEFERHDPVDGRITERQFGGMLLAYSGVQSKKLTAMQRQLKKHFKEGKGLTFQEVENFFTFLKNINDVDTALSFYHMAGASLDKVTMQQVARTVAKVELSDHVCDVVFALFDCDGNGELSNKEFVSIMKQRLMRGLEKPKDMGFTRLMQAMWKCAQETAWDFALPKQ", "T1 sequence (Q9H4I9 53-107 partner)": "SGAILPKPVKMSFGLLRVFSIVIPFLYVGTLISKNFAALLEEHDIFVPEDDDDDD", "assay": "Fluo-4 extramitochondrial Ca2+ in digitonin-permeabilized MICU2-KO HEK cells", "assay_type": "biochemical"}, "[2]": {"target": "T2, MCU-MICU1 complex (MICU1-1 dimer) (Homo sapiens, UniProt Q8NE86+Q9BPX6)", "T2 sequence (Q8NE86 51-351)": "T1 sequence (Q8NE86 51-351)", "T2 sequence (Q9BPX6 34-476)": "T1 sequence (Q9BPX6 34-476)", "assay": "co-immunoprecipitation from HEK lysate, western blot", "assay_type": "biochemical", "conditions": "1 mM spermine, 1 mM EGTA; disruption of the MCU-MICU1 interaction; pH 7.4, 4 mM DDM"}}}
{"smiles": "NCCCNCCCCNCCCN", "note": "[spermine]", "values": [{"measurement": "EC50", "setting": "[1]", "value": 158, "unit": "µM"}, {"measurement": "co-immunoprecipitation from HEK lysate, western blot", "setting": "[2]", "value": "spermine fully breaks complex formation between MCU and the MICU1-1 dimer"}]}
